Legend:
[1] = test system: Spodoptera litura; test: Insecticidal testing against common cutworm; type: in vivo; conditions: foliar, 144 h, concentration 100 ppm, cabbage leaf dip, second-stage larvae, after 6 days, read-out: pesticidal rate
Excerpt: Insecticidal Testing Against Common Cutworm (Spodoptera litura)

[2] = test system: Laodelphax striatellus; test: Insecticidal testing against small brown planthopper; type: in vivo; conditions: 144 h, concentration 100 ppm, sprayed rice seedlings, after 6 days, read-out: pesticidal rate
In short: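 Acetone solution of compound at a set concentration sprayed onto rice seedlings, air-dried, then exposed to 10 planthoppers (one group). Held at 25° C; survival rate recorded after 6 days.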

[3] = test system: Ctenocephalides felis; test: Ctenocephalides felis in-vitro feeding test with fleas (CTECFE oral); conditions: 48 hours, read-out: insecticidal feeding activity; for pest or weed control at 0.032 ppm: dose 0.032 ppm in citrated cattle blood; for pest or weed control at 0.16 ppm: dose 0.16 ppm in citrated cattle blood; for pest or weed control at 0.8 ppm: dose 0.8 ppm in citrated cattle blood; for pest or weed control at 4 ppm: dose 4 ppm in citrated cattle blood
In short: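 About 20 unfed adult cat fleas fed through parafilm on citrated cattle blood containing test substance (DMSO solution diluted in blood), held at about 37° C. Kill rate scored after 48 hours, 100% meaning all fleas dead.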

[4] = test system: Rhipicephalus (Boophilus) microplus; test: In vitro injection test with Rhipicephalus (Boophilus) microplus (BOOPMI Inj); conditions: 168 h, laid fertile eggs after 7 days, read-out: acaricidal activity; for pest or weed control at 0.00016 mg: dose 0.16 μg/animal injected; for pest or weed control at 0.0008 mg: dose 0.8 μg/animal injected
In short: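 Test substance in DMSO; 1 μl injected into abdomen of each of 5 engorged adult female ticks, then held at 28° C., 85% rel. hum. Activity scored after 7 days from laying of fertile eggs: 100% = no eggs or all infertile, 0% = all eggs fertile.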

[5] = test system: Plutella xylostella; test: Insecticidal testing against diamondback moth; type: in vivo; conditions: foliar, 144 h, concentration 100 ppm, cabbage leaf dip, third-stage larvae, after 6 days, read-out: pesticidal rate
Excerpt: Insecticidal Testing Against Diamondback Moth (Plutella xylostella)

[6] = test system: Rhipicephalus sanguineus; test: In vitro contact test with adult hard ticks (Rhipicephalus sanguineus); conditions: read-out: acaricidal activity; for pest or weed control at 0.2 µg/cm2, 0.2 µg/cm2: dose 0.2 μg/cm^2, 48 h; for pest or weed control at 1 µg/cm2, 1 µg/cm2: dose 1 μg/cm^2, 48 h; for pest or weed control at 0.04 µg/cm2, 0.04 µg/cm2: dose 0.04 μg/cm^2, 48 h
In short: (§1)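 Adult R. sanguineus, I. ricinus, D. variabilis or A. americanum nymphs exposed in glass vials coated with compound from acetone (900 ppm gives 5 μg/cm^2). Held 48 h at room temperature (R. sanguineus) or 21° C., 85% rel. hum.; then heated at 45-50° C. ≤5 min, motionless or uncoordinated ticks scored dead/moribund.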

[7] = test system: Amblyomma americanum; test: In vitro contact test with hard ticks (Amblyomma americanum nymphs); conditions: read-out: acaricidal activity
In short: as §1

[8] = test system: Ctenocephalides felis; test: In vitro contact test with fleas; conditions: read-out: insecticidal activity; for pest or weed control at 0.2 µg/cm2, 0.2 µg/cm2: dose 0.2 μg/cm^2, dead or moribund fleas after 48 h; for pest or weed control at 1 µg/cm2, 1 µg/cm2: dose 1 μg/cm^2, dead or moribund fleas after 48 h
In short: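 Adult male and female cat fleas (5-10 per tube) placed in glass tubes coated with compound from acetone solution (900 ppm gives 5 μg/cm^2), kept at room temperature and ambient humidity. After 48 h, motionless or uncoordinated fleas scored dead or moribund; activity expressed as % dead or moribund.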

[9] = test system: Ixodes ricinus; test: In vitro contact test with adult hard ticks (Ixodes ricinus); conditions: read-out: acaricidal activity; for pest or weed control at 1 µg/cm2, 1 µg/cm2: dose 1 μg/cm^2, 48 h; for pest or weed control at 5 µg/cm2, 5 µg/cm2: dose 5 μg/cm^2, 48 h; for pest or weed control at 0.2 µg/cm2, 0.2 µg/cm2: dose 0.2 μg/cm^2, 48 h
Protocol: In Vitro Contact Tests with Adult Hard Ticks
In vitro contact tests with ticks were conducted with adult males and females of Rhipicephalus sanguineus, Ixodes ricinus, or Dermacentor variabilis, or nymphs of Amblyomma americanum.
For the coating of the test vials, the test substance was dissolved and diluted in acetone p.a. to the desired concentration. The solution was then homogeneously applied to the inner wall and base of a glass vial by turning and rocking on an orbital shaker until complete evaporation of the solvent. For example, with a 900 ppm solution of test substance, an area-based dose of 5 μg/cm^2 was achieved.
After the solvent was completely evaporated, 5-10 adult ticks were put in each coated test vial, which was then sealed with a perforated plastic lid and incubated in a horizontal position in the dark at room temperature and ambient humidity (Rhipicephalus sanguineus) or in a climate-controlled cabinet (Ixodes ricinus, Dermacentor variabilis, Amblyomma americanum [21° C., 85% rel. hum.]). Acaricidal activity against the respective tick species was determined after 48 h. For this, ticks were collected to the base of the test vial by gentle knocking, and test vials were then incubated on a hotplate at 45-50° C. for no longer than 5 min. Ticks which remained motionless on the base of the test vial or moved uncoordinated without deliberately climbing up to avoid the heat were considered dead or moribund, respectively.
A substance was judged to have good acaricidal activity against the respective tick species when at least 80% of ticks were found dead or moribund at a dose of the substance of g/cm^2. An acaricidal activity of 100% means all ticks were dead or moribund. An acaricidal activity of 0% means none of the ticks was found dead or moribund.

[10] = test system: Dermacentor variabilis; test: In vitro contact test with adult hard ticks (Dermacentor variabilis); conditions: read-out: acaricidal activity; for pest or weed control at 0.2 µg/cm2, 0.2 µg/cm2: dose 0.2 μg/cm^2, 48 h; for pest or weed control at 1 µg/cm2, 1 µg/cm2: dose 1 μg/cm^2, 48 h
In short: as §1

O=C(Nc1cccc(C(=O)Nc2c(I)cc(C(F)(C(F)(F)F)C(F)(F)F)cc2[S+]([O-])C(F)(F)F)c1F)c1ccc(F)cc1 (stereo not shown) [Compound 65]
90%: pest or weed control at 0.2 µg/cm2, 0.2 µg/cm2 [6] | pest or weed control at 1 µg/cm2, 1 µg/cm2 [6] | pest or weed control at 0.2 µg/cm2, 0.2 µg/cm2 ([7]; dose 0.2 μg/cm^2, 48 h) | pest or weed control at 1 µg/cm2, 1 µg/cm2 ([7]; dose 1 μg/cm^2, 48 h) | pest or weed control at 1 µg/cm2, 1 µg/cm2 [9] | pest or weed control at 5 µg/cm2, 5 µg/cm2 [9]
95%: pest or weed control at 0.032 ppm [3] | pest or weed control at 0.16 ppm [3] | pest or weed control at 0.8 ppm [3] | pest or weed control at 4 ppm [3] | pest or weed control at 0.2 µg/cm2, 0.2 µg/cm2 [8] | pest or weed control at 1 µg/cm2, 1 µg/cm2 [8]
100%: pest or weed control at 0.00016 mg [4] | pest or weed control at 0.0008 mg [4]
≥ 70%: pest or weed control at 100 ppm [1] | pest or weed control at 100 ppm [2] | pest or weed control at 100 ppm [5]

O=C(Nc1cccc(C(=O)Nc2c(I)cc(C(F)(C(F)(F)F)C(F)(F)F)cc2C(F)(F)F)c1F)c1ccc(F)cc1 [Compound 63]
90%: pest or weed control at 0.2 µg/cm2, 0.2 µg/cm2 [10] | pest or weed control at 1 µg/cm2, 1 µg/cm2 [10] | pest or weed control at 0.2 µg/cm2, 0.2 µg/cm2 [6] | pest or weed control at 1 µg/cm2, 1 µg/cm2 [6] | pest or weed control at 0.2 µg/cm2, 0.2 µg/cm2 [9] | pest or weed control at 1 µg/cm2, 1 µg/cm2 [9] | pest or weed control at 5 µg/cm2, 5 µg/cm2 [9]
95%: pest or weed control at 0.032 ppm [3] | pest or weed control at 0.16 ppm [3] | pest or weed control at 0.8 ppm [3] | pest or weed control at 4 ppm [3] | pest or weed control at 1 µg/cm2, 1 µg/cm2 [8]
≥ 70%: pest or weed control at 100 ppm [1] | pest or weed control at 100 ppm [2] | pest or weed control at 100 ppm [5]
100%: pest or weed control at 0.00016 mg [4] | pest or weed control at 0.0008 mg [4]

CN(C(=O)c1ccc(F)cc1)c1cccc(C(=O)Nc2c(Cl)cc(C(F)(C(F)(F)F)C(F)(F)F)cc2C(F)(F)F)c1F [Compound 68]
90%: pest or weed control at 1 µg/cm2, 1 µg/cm2 [10] | pest or weed control at 0.04 µg/cm2, 0.04 µg/cm2 [6] | pest or weed control at 0.2 µg/cm2, 0.2 µg/cm2 [6] | pest or weed control at 1 µg/cm2, 1 µg/cm2 [6] | pest or weed control at 1 µg/cm2, 1 µg/cm2 [9] | pest or weed control at 5 µg/cm2, 5 µg/cm2 [9]
95%: pest or weed control at 0.032 ppm [3] | pest or weed control at 0.16 ppm [3] | pest or weed control at 0.8 ppm [3] | pest or weed control at 4 ppm [3] | pest or weed control at 0.2 µg/cm2, 0.2 µg/cm2 [8] | pest or weed control at 1 µg/cm2, 1 µg/cm2 [8]
≥ 70%: pest or weed control at 100 ppm [1] | pest or weed control at 100 ppm [2] | pest or weed control at 100 ppm [5]
100%: pest or weed control at 0.00016 mg [4] | pest or weed control at 0.0008 mg [4]

O=C(Nc1cccc(C(=O)Nc2c(I)cc(C(F)(C(F)(F)F)C(F)(F)F)cc2C(F)(F)F)c1F)c1ccc(Cl)c(Cl)c1 [Compound 80]
90%: pest or weed control at 0.2 µg/cm2, 0.2 µg/cm2 [10] | pest or weed control at 1 µg/cm2, 1 µg/cm2 [10] | pest or weed control at 1 µg/cm2, 1 µg/cm2 [6] | pest or weed control at 5 µg/cm2, 5 µg/cm2 [9]
95%: pest or weed control at 0.032 ppm [3] | pest or weed control at 0.16 ppm [3] | pest or weed control at 0.8 ppm [3] | pest or weed control at 4 ppm [3]
100%: pest or weed control at 0.0008 mg [4]
≥ 70%: pest or weed control at 100 ppm [1] | pest or weed control at 100 ppm [2] | pest or weed control at 100 ppm [5]

O=C(Nc1cccc(C(=O)Nc2c(Br)cc(C(F)(C(F)(F)F)C(F)(F)F)cc2OC(F)(F)F)c1F)c1ccc(C(F)(F)F)nc1 [Compound 99, N-(2-fluoro-3-((2-bromo-4-(perfluoropropan-2-yl)-6-(trifluoromethoxy)phenyl)carbamoyl)phenyl)-6-(trifluoromethyl)nicotinamide]
100%: pest or weed control at 0.00016 mg [4] | pest or weed control at 0.0008 mg [4]
90%: pest or weed control at 0.2 µg/cm2, 0.2 µg/cm2 [10] | pest or weed control at 1 µg/cm2, 1 µg/cm2 [10] | pest or weed control at 0.2 µg/cm2, 0.2 µg/cm2 [6] | pest or weed control at 1 µg/cm2, 1 µg/cm2 [6] | pest or weed control at 1 µg/cm2, 1 µg/cm2 [9]
≥ 70%: pest or weed control at 100 ppm [1] | pest or weed control at 100 ppm [2] | pest or weed control at 100 ppm [5]
95%: pest or weed control at 0.16 ppm [3] | pest or weed control at 0.8 ppm [3] | pest or weed control at 4 ppm [3]

CN(C(=O)c1ccc(F)cc1)c1cccc(C(=O)Nc2c(Br)cc(C(F)(C(F)(F)F)C(F)(F)F)cc2OC(F)(F)F)c1F [Compound 72]
100%: pest or weed control at 32 ng ([4]; dose 0.032 μg/animal injected) | pest or weed control at 0.00016 mg [4] | pest or weed control at 0.0008 mg [4]
95%: pest or weed control at 0.8 ppm [3] | pest or weed control at 4 ppm [3] | pest or weed control at 0.2 µg/cm2, 0.2 µg/cm2 [8] | pest or weed control at 1 µg/cm2, 1 µg/cm2 [8]
≥ 70%: pest or weed control at 100 ppm [1] | pest or weed control at 100 ppm [2] | pest or weed control at 100 ppm [5]
90%: pest or weed control at 0.2 µg/cm2, 0.2 µg/cm2 [10] | pest or weed control at 1 µg/cm2, 1 µg/cm2 [10] | pest or weed control at 0.04 µg/cm2, 0.04 µg/cm2 [6] | pest or weed control at 0.2 µg/cm2, 0.2 µg/cm2 [6] | pest or weed control at 1 µg/cm2, 1 µg/cm2 [6] | pest or weed control at 0.2 µg/cm2, 0.2 µg/cm2 [9] | pest or weed control at 1 µg/cm2, 1 µg/cm2 [9] | pest or weed control at 5 µg/cm2, 5 µg/cm2 [9]

— patent US11696913B2, “Prolonged ectoparasite-controlling agent for animal” (MITSUI CHEMICALS AGRO, INC., priority 2017, dated 2023)
